ChEMBL document CHEMBL2311386, “Alkyl substituted 2'-benzoylpyridine thiosemicarbazone chelators with potent and selective anti-neoplastic activity: novel ligands that limit methemoglobin formation” (J Med Chem, 2013)

Experiments:
[1] = Induction of ascorbate oxidation in citrate buffer in presence of 10 uM Fe3+ at 1 to 60 uM; type: physicochemical
[2] = Therapeutic index, ratio of IC50 for human MRC5 cells to IC50 for human SK-N-MC cells; type: cell-based; conditions: MRC5 cells and SK-N-MC cells, read-out: Ratio IC50
SK-N-MC [3] = test: Cytotoxicity against human SK-N-MC cells assessed as growth inhibition after 72 hrs by MTT assay; type: functional, cell-based
[4] = Toxicity in human RBC lysates assessed as methemoglobin formation using Fe(compound)2 complex at 25 uM after 3 hrs relative to control; set-up: species or system Lysate; conditions: erythrocyte
MRC5 = test: Cytotoxicity against human MRC5 cells assessed as growth inhibition after 72 hrs by MTT assay; type: cell-based; conditions: MRC5, 72 h
[5] = Toxicity in human RBC lysates assessed as methemoglobin formation at 25 uM after 3 hrs relative to control; set-up: species or system Lysate; conditions: erythrocyte
[6] = Toxicity in intact human RBC assessed as methemoglobin formation at 25 uM after 3 hrs relative to untreated control; type: cell-based; conditions: erythrocyte
[7] = Toxicity in intact human RBC assessed as methemoglobin formation using Fe(compound)2 complex at 25 uM after 3 hrs relative to untreated control; type: cell-based; conditions: erythrocyte
SK-N-MC [8] = test: Reduction of cellular 59Fe uptake from 59Fe-Transferrin in human SK-N-MC cells assessed as 59Fe level prelabeled with 59Fe2-Tf at 25 uM after 3 hrs relative to control; type: functional; set-up: scale not given: the % may be the effect or the level left
[9] = Toxicity in human RBC lysates assessed as methemoglobin formation at 25 uM after 3 hrs (reference value: 1.2 +/- 8%); type: cell-based, Lysate; conditions: erythrocyte
[10] = Toxicity in intact human RBC assessed as methemoglobin formation using Fe(compound)2 complex at 25 uM after 3 hrs relative to free ligand; conditions: erythrocyte

| Activity [1] | SMILES | selectivity ratio [2] | IC50 (SK-N-MC [3]) | Activity [4] | IC50 (MRC5) | Activity [5] | Activity [6] | Activity [7] | Activity (SK-N-MC [8]) | fold change (FC) [6] | Activity [9] | fold change (FC) [10] |
| --- | --- | --- | --- | --- | --- | --- | --- | --- | --- | --- | --- | --- |
| Not Active | CN(C)C(=S)N/N=C(\c1ccccc1)c1ccccn1 | 202 | 5 nM | – | – | – | – | – | – | – | – | – |
| Active | NC(=S)N/N=C(\c1ccccc1)c1ccccn1 | > 3 | 3800 nM | Non-toxic | > 12500 nM | Non-toxic | Toxic | Toxic | – | – | – | – |
| – | CNC(=S)N/N=C(\c1ccc(C(C)(C)C)cc1)c1ccccn1 | 164 | 15 nM | Non-toxic | 2460 nM | Non-toxic | Non-toxic | Non-toxic | – | – | – | – |
| – | CC(C)(C)c1ccc(/C(=N\NC(=S)Nc2ccccc2)c2ccccn2)cc1 | 17 | 109 nM | Non-toxic | 1890 nM | Non-toxic | Non-toxic | Non-toxic | – | – | – | – |
| – | COc1ccc(/C(=N\NC(=S)Nc2ccccc2)c2ccccn2)cc1 | 45 | 19 nM | Non-toxic | 864 nM | Non-toxic | Non-toxic | Non-toxic | – | – | – | – |
| – | Cc1ccc(/C(=N\NC(=S)Nc2ccccc2)c2ccccn2)cc1 | 63 | 24 nM | Non-toxic | 1520 nM | Non-toxic | Non-toxic | Non-toxic | – | – | – | – |
| Not Active | CN(C)C(=S)N/N=C(\c1ccc(C(C)(C)C)cc1)c1ccccn1 | 15 | 72 nM | – | 1070 nM | – | Non-toxic | Non-toxic | – | – | – | – |
| Not Active | COc1ccc(/C(=N\NC(=S)N(C)C)c2ccccn2)cc1 | 66 | 17 nM | – | 1140 nM | – | Non-toxic | Non-toxic | 8% | – | – | – |
| Not Active | Cc1ccc(/C(=N\NC(=S)N(C)C)c2ccccn2)cc1 | 131 | 7 nM | – | 921 nM | – | Non-toxic | Non-toxic | 8% | – | – | – |
| – | CCNC(=S)N/N=C(\c1ccc(OC)cc1)c1ccccn1 | 102 | 16 nM | Non-toxic | 1650 nM | Non-toxic | Non-toxic | Non-toxic | 8% | – | – | – |
| – | CCNC(=S)N/N=C(\c1ccc(C(C)(C)C)cc1)c1ccccn1 | 147 | 20 nM | Non-toxic | 2940 nM | Non-toxic | Non-toxic | Non-toxic | – | – | – | – |
| – | CCNC(=S)N/N=C(\c1ccc(C)cc1)c1ccccn1 | 164 | 13 nM | Non-toxic | 2140 nM | Non-toxic | Non-toxic | Non-toxic | 8% | – | – | – |
| – | CNC(=S)N/N=C(\c1ccc(OC)cc1)c1ccccn1 | 92 | 22 nM | Non-toxic | 2030 nM | Non-toxic | Non-toxic | Non-toxic | 8% | – | – | – |
| – | CNC(=S)N/N=C(\c1ccc(C)cc1)c1ccccn1 | 141 | 15 nM | Toxic | 2120 nM | Toxic | Non-toxic | Non-toxic | 8% | – | – | – |
| Active | CC(C)(C)c1ccc(/C(=N\NC(N)=S)c2ccccn2)cc1 | 58 | 14 nM | Non-toxic | 814 nM | Non-toxic | Non-toxic | Non-toxic | – | – | – | – |
| Active | Cc1ccc(/C(=N\NC(N)=S)c2ccccn2)cc1 | > 85 | 146 nM | Toxic | > 12500 nM | Toxic | Toxic | Toxic | 8% | – | – | – |
| Active | COc1ccc(/C(=N\NC(N)=S)c2ccccn2)cc1 | > 3 | 3950 nM | Non-toxic | > 12500 nM | Non-toxic | Toxic | Toxic | 8% | – | – | – |
| – | CNC(=S)N/N=C(\c1ccccc1)c1ccccn1 | 116 | 20 nM | Non-toxic | – | Non-toxic | Non-toxic | Non-toxic | – | – | – | – |
| Active | CN(C)C(=S)NN=C(c1ccccn1)c1ccccn1 | – | 7 nM | – | – | – | – | – | 4% | 45 | 12% | 2.3 |
| – | S=C(N/N=C(\c1ccccc1)c1ccccn1)Nc1ccccc1 | 36 | 16 nM | Non-toxic | 571 nM | Non-toxic | Non-toxic | Non-toxic | – | – | – | – |
| – | CCNC(=S)N/N=C(\c1ccccc1)c1ccccn1 | 106 | 14 nM | Non-toxic | 1490 nM | Non-toxic | Non-toxic | Non-toxic | – | – | – | – |
| – | CC(=O)N(O)CCCCCNC(=O)CCC(=O)N(O)CCCCCNC(=O)CCC(=O)N(O)CCCCCN [DEFEROXAMINE] | – | – | – | – | – | – | – | 77% | – | – | – |
| – | NC(=S)N/N=C/c1ncccc1N [TRIAPINE] | – | – | – | – | – | – | – | 54% | 38 | 17% | – |
